Consider two compounds from article PMC11169512, “Structural basis for urate recognition and apigenin inhibition of human GLUT9” (Nature Communications, 2024).

Holding throughout (format): binding
Test [1] deals with T1, GLUT9 (Homo sapiens, UniProt Q9NRM0, N458A).
T1 construct: gene SLC2A9; full length human SLC2A9, N-terminal twin strep and FLAG tag
T1 sequence (Q9NRM0 1-540 N458A): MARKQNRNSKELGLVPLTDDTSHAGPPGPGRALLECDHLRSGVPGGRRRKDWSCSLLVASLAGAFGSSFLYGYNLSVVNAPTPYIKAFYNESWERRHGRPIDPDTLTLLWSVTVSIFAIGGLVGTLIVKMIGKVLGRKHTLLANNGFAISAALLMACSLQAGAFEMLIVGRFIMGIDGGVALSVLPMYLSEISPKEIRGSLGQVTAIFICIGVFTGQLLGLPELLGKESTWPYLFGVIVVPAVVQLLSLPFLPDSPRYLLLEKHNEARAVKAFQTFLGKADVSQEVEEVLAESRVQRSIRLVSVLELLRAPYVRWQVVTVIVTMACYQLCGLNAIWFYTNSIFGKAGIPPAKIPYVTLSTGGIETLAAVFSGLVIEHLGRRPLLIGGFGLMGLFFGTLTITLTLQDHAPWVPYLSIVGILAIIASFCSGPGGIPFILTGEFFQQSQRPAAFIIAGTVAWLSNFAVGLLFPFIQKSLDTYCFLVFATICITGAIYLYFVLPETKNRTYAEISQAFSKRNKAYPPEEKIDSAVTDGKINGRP
The experiment in a line: MST with purified protein.

The target of test [2] is T2, GLUT9 (Homo sapiens, UniProt Q9NRM0, Y327A).
T2 construct: gene SLC2A9; full length human SLC2A9, N-terminal twin strep and FLAG tag
T2 sequence (Q9NRM0 1-540 Y327A): T1 sequence (Q9NRM0 1-540 N458A) with Y327A, A458N
Nature of the test: MST with purified protein.

For test [3], the target named is T3, GLUT9 (Homo sapiens, UniProt Q9NRM0, W336A).
T3 construct: gene SLC2A9; full length human SLC2A9, N-terminal twin strep and FLAG tag
T3 sequence (Q9NRM0 1-540 W336A): T1 sequence (Q9NRM0 1-540 N458A) with W336A, A458N
The experiment in a line: MST with purified protein.

Test [4] addresses T4, GLUT9 (Homo sapiens, UniProt Q9NRM0, C427A).
T4 construct: gene SLC2A9; full length human SLC2A9, N-terminal twin strep and FLAG tag
T4 sequence (Q9NRM0 1-540 C427A): T1 sequence (Q9NRM0 1-540 N458A) with C427A, A458N
The experiment in a line: MST with purified protein.

In test [5] the target is T5, GLUT9 (Homo sapiens, UniProt Q9NRM0).
T5 construct: gene SLC2A9; full length human SLC2A9, N-terminal twin strep and FLAG tag
T5 sequence (Q9NRM0 1-540): T1 sequence (Q9NRM0 1-540 N458A) with A458N
The experiment in a line: cryo-EM structure ([…] Å), MST Kd; patch clamp IC50 […]. Background: The patch-clamp technique gives a direct electrical read-out from membranes.

In test [6] the target is T5, GLUT9. Nature of the test: cryo-EM structure ([…] Å), MST Kd; patch clamp transport current.
In test [7] the target is T6, GLUT9 (Homo sapiens, UniProt Q9NRM0, E364A).
T6 construct: gene SLC2A9; full length human SLC2A9, N-terminal twin strep and FLAG tag
T6 sequence (Q9NRM0 1-540 E364A): T1 sequence (Q9NRM0 1-540 N458A) with E364A, A458N
The experiment in a line: MST with purified protein.

Test [8] has as its target T7, GLUT9 (Homo sapiens, UniProt Q9NRM0, N333A).
T7 construct: gene SLC2A9; full length human SLC2A9, N-terminal twin strep and FLAG tag
T7 sequence (Q9NRM0 1-540 N333A): T1 sequence (Q9NRM0 1-540 N458A) with N333A, A458N
Nature of the test: MST with purified protein.

In test [9] the target is T8, GLUT9 (Homo sapiens, UniProt Q9NRM0, W336F).
T8 construct: gene SLC2A9; full length human SLC2A9, N-terminal twin strep and FLAG tag
T8 sequence (Q9NRM0 1-540 W336F): T1 sequence (Q9NRM0 1-540 N458A) with W336F, A458N
Nature of the test: MST with purified protein.

In test [10] the target is T9, GLUT9 (Homo sapiens, UniProt Q9NRM0, Y327Q).
T9 construct: gene SLC2A9; full length human SLC2A9, N-terminal twin strep and FLAG tag
T9 sequence (Q9NRM0 1-540 Y327Q): T1 sequence (Q9NRM0 1-540 N458A) with Y327Q, A458N
Nature of the test: MST with purified protein.

Structures are written as SMILES. Where a chain is given by its changes, count along the chain named.

For orientation: Kd means a measure of binding affinity in units of concentration. Read a high Kd as lower affinity. Turning to `O=c1cc(-c2ccc(O)cc2)oc2cc(O)cc(O)c12` [API, apigenin], the dissociation constant (Kd) in test [1] worked out at 4.1 ± 1.1 µM; in test [2], 2.2 ± 0.7 µM; in [3], 1.3 ± 0.3 µM; in test [4], 1 ± 0.2 µM; in [5], 0.5 ± 0.1 µM.
With `O=c1[nH]c(=O)c2[nH]c(=O)[nH]c2[nH]1` [UA, urate], the Kd in [6] was 231 ± 17.1 µM; in test [7], 681 ± 126 µM; in test [8], 472 ± 52.2 µM; in [9], 361 ± 80.3 µM; in test [10] it was 867 ± 168 µM.
